{
  "source": "patent US10697020B2",
  "about": "“MicroRNA-129 as a biomarker for colorectal cancer” (THE RESEARCH FOUNDATION FOR THE STATE UNIVERSITY OF NEW YORK, priority 2013, dated 2020)",
  "assay_type_in_all_cases": "cell-based, human",
  "key": {"[1]": {"tested_on": "RKO cells", "assay": "Cell cycle analysis (flow cytometry), RKO", "conditions": "36 h after transfection", "description": "(§1) HCT116, RKO and SW480 cells were plated in 6-well plates at 2×10^5, 1×10^5 and 1×10^5 per well, respectively. Twenty-four hours after plating, 100 nM of miR-129 precursor (Ambion, Carlsbad, Calif., USA) or siRNA against BCL2 (Dharmacon, Lafayette, Colo., USA) were transfected to the cells with oligofectamine (Invitrogen, Carlsbad, Calif., USA) in accordance with the manufacturer's protocol. Negative miRNA (Ambion) was also transfected as a negative control.\n(§2) Thirty-six hours after transfection, cells were harvested and resuspended at 0.5 to 1×10^6 cells/m in modified Krishan buffer supplemented with 0.02 mg/ml RNase H (Invitrogen) and 0.05 mg/ml propidium iodide (Sigma-Aldrich, St. Louis, Mo., USA) (See, Krishan A. The Journal of Cell Biology. 1975; 66(1):188-93). Stained cells were detected by flow cytometry and results were analyzed with Modfit LT™ software. The experiments for cell cycle analysis were performed at least three times."}, "[2]": {"tested_on": "HCT116 cells", "assay": "Cell cycle analysis (flow cytometry), HCT116", "conditions": "36 h after transfection", "description": "as §1, §2"}, "[3]": {"tested_on": "SW480 cells", "assay": "Cell proliferation assay (WST-1), SW480", "conditions": "day 5", "description": "as §1\nTwenty-four hours after transfection, cells were seeded in 96-well plates at a density of 2000 cells per well. The cell proliferation assay was performed on days 1, 3 and 5 by incubating 10 μl WST-1 (Roche Applied Science, Mannheim, Germany) in the culture medium for 1 h and reading the absorbance at 450 and 630 nm. The cell proliferation rate was calculated by […]. Experiments for the cell proliferation assay were performed at least three times."}, "[4]": {"tested_on": "84 genes involved in cell death pathways", "assay": "Cell Death PathwayFinder PCR Array (real time qRT-PCR)", "conditions": "miR-129 transfected vs negative miRNA transfected cells", "source_text": "RNAs were extracted from cells transfected with either precursor miR-129 or negative miRNA using TRIzol reagent (Invitrogen) in accordance with the manufacturer's protocol. RNAs were transcribed to first-strand cDNA using the RT^2 First Strand Kit (SABiosciences, Qiagen, Venlo, Netherlands). Next, the cDNA is mixed with RT^2 SYBR Green Mastermix (SABiosciences), and this mixture is aliquoted into the wells of the Cell Death PathwayFinder PCR Array (PAHS-212Z). Applied Biosytems 7500 Real-Time PCR machine was used for qRT-PCR, and relative expression values were determined using the ΔΔCT method."}},
  "data": [
    {"substance": "miR-129: nucleic acid having a sequence of CUUUUUGCGGUCUGGGCUUGC (SEQ ID NO. 1); miR-129 precursor from Ambion used (chemistry not given here; listed as Homo sapiens)", "values": [
      {"measurement": "cell cycle arrest (G1/S and G2/S ratios)", "setting": "[1]", "result": "at G1 checkpoint"},
      {"measurement": "cell cycle arrest (G1/S and G2/S ratios)", "setting": "[2]", "result": "reached significance at G2 checkpoint"},
      {"measurement": "cell proliferation reduced compared to negative controls", "setting": "[3]", "result": 44.7, "unit": "%"},
      {"measurement": "Fold change (miR-129/neg)", "setting": "[4]; gene APAF1", "result": 2.44},
      {"measurement": "Fold change (miR-129/neg)", "setting": "[4]; gene BAX", "result": 27.77},
      {"measurement": "Fold change (miR-129/neg)", "setting": "[4]; gene BCL2A1", "result": 0.04},
      {"measurement": "Fold change (miR-129/neg)", "setting": "[4]; gene BIRC3", "result": 0.28},
      {"measurement": "Fold change (miR-129/neg)", "setting": "[4]; gene CASP2", "result": 7.68},
      {"measurement": "Fold change (miR-129/neg)", "setting": "[4]; gene CASP3", "result": 1.27},
      {"measurement": "Fold change (miR-129/neg)", "setting": "[4]; gene CASP7", "result": 4.75},
      {"measurement": "Fold change (miR-129/neg)", "setting": "[4]; gene CASP9", "result": 2.53},
      {"measurement": "Fold change (miR-129/neg)", "setting": "[4]; gene MCL1", "result": 3.81},
      {"measurement": "Fold change (miR-129/neg)", "setting": "[4]; gene PARP2", "result": 0.47}
    ]}
  ]
}
